Test results published in PubChem BioAssay (NCI).
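Compound exposure: 48 hours, 5 concentrations, 96-well plates. Here, GI50 denotes the concentration required for 50% inhibition of growth. TGI: total growth inhibition.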

Assays:
Experiment in all cases: DTP human tumour cell line panel, 48 h
SN12C renal = test system: SN12C renal
U251 CNS = test system: U251 CNS
HOP-62 NSCLC = test system: HOP-62 NSCLC
CCRF-CEM leukemia = test system: CCRF-CEM leukemia
RPMI-8226 leukemia = test system: RPMI-8226 leukemia
UACC-257 melanoma = test system: UACC-257 melanoma
IGROV1 ovarian = test system: IGROV1 ovarian
SK-OV-3 ovarian = test system: SK-OV-3 ovarian
ACHN renal = test system: ACHN renal
OVCAR-3 ovarian = test system: OVCAR-3 ovarian

Compound	GI50 (SN12C renal) [µM]	TGI (SN12C renal) [µM]	GI50 (U251 CNS) [µM]	TGI (U251 CNS) [µM]	GI50 (HOP-62 NSCLC) [µM]	TGI (HOP-62 NSCLC) [µM]	GI50 (CCRF-CEM leukemia) [µM]	TGI (CCRF-CEM leukemia) [µM]	GI50 (RPMI-8226 leukemia) [µM]	TGI (RPMI-8226 leukemia) [µM]	GI50 (UACC-257 melanoma) [µM]	TGI (UACC-257 melanoma) [µM]	GI50 (IGROV1 ovarian) [µM]	TGI (IGROV1 ovarian) [µM]	GI50 (SK-OV-3 ovarian) [µM]	TGI (SK-OV-3 ovarian) [µM]	GI50 (ACHN renal) [µM]	TGI (ACHN renal) [µM]	GI50 (OVCAR-3 ovarian) [µM]	TGI (OVCAR-3 ovarian) [µM]
Oc1ccc(CN2CCC(N3CCCCC3)CC2)c2cccnc12	8.18	> 100	5.57	> 100	6.25	> 100	36.1	> 100	6.33	> 100	27.6	99.3	23.4	> 100	24.8	> 100	5.95	> 100	27.5	> 100
O=C1NC2OC(CO)C(O)C(O1)C2O (centres undefined)		> 100		> 100		> 100		> 100		> 100		> 100		> 100		> 100		> 100		> 100
N#CSc1c[nH]c2cccc(/C=C/C(=O)/C=C(/C=C/c3cccc4[nH]cc(SC#N)c34)OB(F)F)c12	0.495	3.72	0.366	4.25	3.16	17.1	0.315	17.6	0.351	30	1.98	10.9	0.448	4.36	9.74	41.5	0.389	1.72	0.243	0.586
Cn1c2ccccc2c2c(-c3ccccc3)[n+]3ccncc3nc21	48.2	> 100	47.4	> 100	> 100	> 100	89.4	> 100	36.1	> 100	59.5	> 100	70.8	> 100	> 100	> 100	> 100	> 100	> 100	> 100
[Cl-].[Dy+3].[O-]/N=C(\c1ccccc1)c1ccccn1.[O-]/N=C(\c1ccccc1)c1ccccn1.[O-]/N=C(\c1ccccc1)c1ccccn1	46.4	> 100	47.5	> 100	24.7	> 100	23.6	97.4	45.1	> 100	24.5	67.8	33.1	> 100	33.9	> 100	34.6	> 100	24.4	92.6
CC[C@]1(O)C[C@@H]2CN(CCc3c([nH]c4ccccc34)[C@@](C(=O)OC)(c3cc4c(cc3OC)N(C)[C@H]3[C@@](O)(C(=O)OC)[C@H](OC(C)=O)[C@]5(CC)C=CCN6CC[C@]43[C@@H]65)C2)C1	< 0.01	35.7	< 0.01	20.5	< 0.01	24.1	< 0.01	> 49.3	< 0.01	8.54	14.6	37.8	< 0.01	13		45	< 0.0324	73.9	< 0.01	< 0.01
COc1ccc(C2=CC3CCC2C3)cc1 (centres undefined)		> 100		> 100		> 100		> 100		> 100		> 100		> 100		> 100		> 100		> 100
